Measured values: ChEMBL document CHEMBL4507301 (2021)

How the values were obtained:
[1] = target: AP2-associated protein kinase 1 (Homo sapiens) (UniProt Q2M2I8); conditions: Compound concentration 1000.0 nM
[2] = system: Tyrosine-protein kinase ABL1 (Homo sapiens), P00519 [H396P]; conditions: Compound concentration 1000.0 nM
[3] = target: Tyrosine-protein kinase ABL2 (Homo sapiens) (UniProt P42684); conditions: Compound concentration 1000.0 nM
[4] = target: Atypical kinase COQ8A, mitochondrial (Homo sapiens) (UniProt Q8NI60); conditions: Compound concentration 1000.0 nM
[5] = target: Calcium/calmodulin-dependent protein kinase kinase 1 (Homo sapiens) (UniProt Q8N5S9); conditions: Compound concentration 1000.0 nM
[6] = target: Peripheral plasma membrane protein CASK (Homo sapiens) (UniProt O14936); conditions: Compound concentration 1000.0 nM
[7] = target: Cyclin-dependent kinase 3 (Homo sapiens) (UniProt Q00526); conditions: Compound concentration 1000.0 nM
[8] = target: Cyclin-dependent kinase 4 (Homo sapiens) (UniProt P11802); conditions: Compound concentration 1000.0 nM
[9] = target: Cyclin-dependent kinase 7 (Homo sapiens) (UniProt P50613); conditions: Compound concentration 1000.0 nM
[10] = target: Citron Rho-interacting kinase (Homo sapiens) (UniProt O14578); conditions: Compound concentration 1000.0 nM
[11] = target: Mitogen-activated protein kinase kinase kinase 12 (Homo sapiens) (UniProt Q12852); conditions: Compound concentration 1000.0 nM
[12] = target: Myotonin-protein kinase (Homo sapiens) (UniProt Q09013); conditions: Compound concentration 1000.0 nM
[13] = target: Serine/threonine-protein kinase 17A (Homo sapiens) (UniProt Q9UEE5); conditions: Compound concentration 1000.0 nM
[14] = system: Epidermal growth factor receptor (Homo sapiens), P00533 [UNDEFINED MUTATION]; conditions: Compound concentration 1000.0 nM
[15] = system: Epidermal growth factor receptor (Homo sapiens), P00533 [T790M]; conditions: Compound concentration 1000.0 nM
[16] = target: Ephrin type-B receptor 2 (Homo sapiens) (UniProt P29323); conditions: Compound concentration 1000.0 nM
[17] = target: Cyclin-G-associated kinase (Homo sapiens) (UniProt O14976); conditions: Compound concentration 1000.0 nM
[18] = target: Rhodopsin kinase GRK1 (Homo sapiens) (UniProt Q15835); conditions: Compound concentration 1000.0 nM
[19] = target: Rhodopsin kinase GRK7 (Homo sapiens) (UniProt Q8WTQ7); conditions: Compound concentration 1000.0 nM
[20] = target: Insulin-like growth factor 1 receptor (Homo sapiens) (UniProt P08069); conditions: Compound concentration 1000.0 nM
[21] = target: Interleukin-1 receptor-associated kinase 3 (Homo sapiens) (UniProt Q9Y616); conditions: Compound concentration 1000.0 nM
[22] = target: Tyrosine-protein kinase JAK2 (Homo sapiens) (UniProt O60674); conditions: Compound concentration 1000.0 nM
[23] = target: Mitogen-activated protein kinase 8 (Homo sapiens) (UniProt P45983); conditions: Compound concentration 1000.0 nM
[24] = target: Leucine-rich repeat serine/threonine-protein kinase 2 (Homo sapiens) (UniProt Q5S007); conditions: Compound concentration 1000.0 nM
[25] = target: Microtubule-associated serine/threonine-protein kinase 1 (Homo sapiens) (UniProt Q9Y2H9); conditions: Compound concentration 1000.0 nM
[26] = target: Mitogen-activated protein kinase kinase kinase 9 (Homo sapiens) (UniProt P80192); conditions: Compound concentration 1000.0 nM
[27] = target: Serine/threonine-protein kinase Nek9 (Homo sapiens) (UniProt Q8TD19); conditions: Compound concentration 1000.0 nM
[28] = target: Serine/threonine-protein kinase OSR1 (Homo sapiens) (UniProt O95747); conditions: Compound concentration 1000.0 nM
[29] = target: Serine/threonine-protein kinase PAK 6 (Homo sapiens) (UniProt Q9NQU5); conditions: Compound concentration 1000.0 nM
[30] = system: Phosphatidylinositol 4,5-bisphosphate 3-kinase catalytic subunit alpha isoform (Homo sapiens), P42336 [I800L]; conditions: Compound concentration 1000.0 nM
[31] = target: Serine/threonine-protein kinase pim-2 (Homo sapiens) (UniProt Q9P1W9); conditions: Compound concentration 1000.0 nM
[32] = target: Serine/threonine-protein kinase PLK3 (Homo sapiens) (UniProt Q9H4B4); conditions: Compound concentration 1000.0 nM
[33] = target: cAMP-dependent protein kinase catalytic subunit PRKX (Homo sapiens) (UniProt P51817); conditions: Compound concentration 1000.0 nM
[34] = target: Ribosomal protein S6 kinase alpha-5 (Homo sapiens) (UniProt O75582); conditions: Compound concentration 1000.0 nM
[35] = target: Ribosomal protein S6 kinase alpha-6 (Homo sapiens) (UniProt Q9UK32); conditions: Compound concentration 1000.0 nM
[36] = target: Uncharacterized serine/threonine-protein kinase SBK3 (Homo sapiens) (UniProt P0C264); conditions: Compound concentration 1000.0 nM
[37] = target: Serine/threonine-protein kinase SIK1 (Homo sapiens) (UniProt P57059); conditions: Compound concentration 1000.0 nM
[38] = target: NUAK family SNF1-like kinase 2 (Homo sapiens) (UniProt Q9H093); conditions: Compound concentration 1000.0 nM
[39] = target: Serine/threonine-protein kinase 36 (Homo sapiens) (UniProt Q9NRP7); conditions: Compound concentration 1000.0 nM
[40] = target: High affinity nerve growth factor receptor (Homo sapiens) (UniProt P04629); conditions: Compound concentration 1000.0 nM
[41] = target: Non-receptor tyrosine-protein kinase TYK2 (Homo sapiens) (UniProt P29597); conditions: Compound concentration 1000.0 nM
[42] = target: Non-receptor tyrosine-protein kinase TYK2 (Homo sapiens) (UniProt P29597); conditions: Compound concentration 1000.0 nM; remark: listed apart in the source
[43] = target: Vascular endothelial growth factor receptor 2 (Homo sapiens) (UniProt P35968); conditions: Compound concentration 1000.0 nM
[44] = target: Alpha-1D adrenergic receptor (Homo sapiens) (UniProt P25100); conditions: Compound concentration 10.0 uM
[45] = target: Sigma intracellular receptor 2 (Homo sapiens) (UniProt Q5BJF2); conditions: Compound concentration 10.0 uM
Sigma intracellular receptor 2 (Homo sapiens), sequence (Q5BJF2 whole entry): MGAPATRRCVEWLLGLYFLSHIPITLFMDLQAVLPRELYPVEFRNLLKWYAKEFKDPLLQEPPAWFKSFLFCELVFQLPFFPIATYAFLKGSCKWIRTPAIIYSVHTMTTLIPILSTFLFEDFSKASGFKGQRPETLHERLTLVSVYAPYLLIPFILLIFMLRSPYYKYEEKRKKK

Non-receptor tyrosine-protein kinase TYK2 (Homo sapiens), sequence (P29597 whole entry): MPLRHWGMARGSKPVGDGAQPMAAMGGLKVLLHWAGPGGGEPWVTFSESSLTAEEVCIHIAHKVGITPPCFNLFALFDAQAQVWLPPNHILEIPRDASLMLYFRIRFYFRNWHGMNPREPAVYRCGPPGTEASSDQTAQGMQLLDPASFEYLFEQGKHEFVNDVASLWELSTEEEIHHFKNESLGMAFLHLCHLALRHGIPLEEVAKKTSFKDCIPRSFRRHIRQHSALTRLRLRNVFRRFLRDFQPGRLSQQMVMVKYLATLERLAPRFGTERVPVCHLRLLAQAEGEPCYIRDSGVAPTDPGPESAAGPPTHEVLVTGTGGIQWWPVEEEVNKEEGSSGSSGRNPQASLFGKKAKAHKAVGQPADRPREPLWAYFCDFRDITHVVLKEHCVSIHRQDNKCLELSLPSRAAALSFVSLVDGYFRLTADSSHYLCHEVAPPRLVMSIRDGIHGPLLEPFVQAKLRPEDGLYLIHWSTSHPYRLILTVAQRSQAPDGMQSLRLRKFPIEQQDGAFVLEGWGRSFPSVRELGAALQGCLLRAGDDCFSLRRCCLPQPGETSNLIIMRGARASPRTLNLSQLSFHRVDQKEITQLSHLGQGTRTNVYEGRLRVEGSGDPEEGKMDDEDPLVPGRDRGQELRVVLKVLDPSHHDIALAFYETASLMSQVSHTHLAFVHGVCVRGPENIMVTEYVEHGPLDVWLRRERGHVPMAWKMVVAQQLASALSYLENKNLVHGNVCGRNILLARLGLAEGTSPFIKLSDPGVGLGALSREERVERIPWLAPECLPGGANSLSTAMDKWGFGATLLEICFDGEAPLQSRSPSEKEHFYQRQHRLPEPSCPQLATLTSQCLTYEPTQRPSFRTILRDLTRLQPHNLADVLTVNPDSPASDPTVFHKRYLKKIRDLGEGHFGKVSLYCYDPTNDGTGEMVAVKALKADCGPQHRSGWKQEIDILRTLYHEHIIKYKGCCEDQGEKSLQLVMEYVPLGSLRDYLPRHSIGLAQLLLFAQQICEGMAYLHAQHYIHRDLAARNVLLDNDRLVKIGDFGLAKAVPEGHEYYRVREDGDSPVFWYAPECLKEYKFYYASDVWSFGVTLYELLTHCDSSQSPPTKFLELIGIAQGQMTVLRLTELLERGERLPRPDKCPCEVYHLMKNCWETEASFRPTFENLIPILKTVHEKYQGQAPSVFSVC
Interleukin-1 receptor-associated kinase 3 (Homo sapiens), sequence (Q9Y616 whole entry): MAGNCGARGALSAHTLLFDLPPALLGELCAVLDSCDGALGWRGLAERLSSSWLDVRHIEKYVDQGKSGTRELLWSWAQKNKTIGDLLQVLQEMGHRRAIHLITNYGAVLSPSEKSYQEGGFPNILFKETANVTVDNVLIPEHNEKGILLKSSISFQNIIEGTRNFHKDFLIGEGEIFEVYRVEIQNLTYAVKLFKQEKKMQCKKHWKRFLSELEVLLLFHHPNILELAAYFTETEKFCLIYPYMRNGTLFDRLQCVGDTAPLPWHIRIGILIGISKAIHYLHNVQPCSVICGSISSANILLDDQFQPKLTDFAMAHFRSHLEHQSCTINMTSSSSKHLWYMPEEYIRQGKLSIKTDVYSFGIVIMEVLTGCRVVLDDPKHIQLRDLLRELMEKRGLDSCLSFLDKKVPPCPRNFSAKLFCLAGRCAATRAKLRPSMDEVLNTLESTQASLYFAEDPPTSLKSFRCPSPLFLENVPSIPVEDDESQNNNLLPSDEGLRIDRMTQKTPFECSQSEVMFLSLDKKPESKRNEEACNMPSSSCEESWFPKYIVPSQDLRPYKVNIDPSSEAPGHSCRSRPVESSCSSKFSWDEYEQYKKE
Tyrosine-protein kinase JAK2 (Homo sapiens), sequence (O60674 whole entry): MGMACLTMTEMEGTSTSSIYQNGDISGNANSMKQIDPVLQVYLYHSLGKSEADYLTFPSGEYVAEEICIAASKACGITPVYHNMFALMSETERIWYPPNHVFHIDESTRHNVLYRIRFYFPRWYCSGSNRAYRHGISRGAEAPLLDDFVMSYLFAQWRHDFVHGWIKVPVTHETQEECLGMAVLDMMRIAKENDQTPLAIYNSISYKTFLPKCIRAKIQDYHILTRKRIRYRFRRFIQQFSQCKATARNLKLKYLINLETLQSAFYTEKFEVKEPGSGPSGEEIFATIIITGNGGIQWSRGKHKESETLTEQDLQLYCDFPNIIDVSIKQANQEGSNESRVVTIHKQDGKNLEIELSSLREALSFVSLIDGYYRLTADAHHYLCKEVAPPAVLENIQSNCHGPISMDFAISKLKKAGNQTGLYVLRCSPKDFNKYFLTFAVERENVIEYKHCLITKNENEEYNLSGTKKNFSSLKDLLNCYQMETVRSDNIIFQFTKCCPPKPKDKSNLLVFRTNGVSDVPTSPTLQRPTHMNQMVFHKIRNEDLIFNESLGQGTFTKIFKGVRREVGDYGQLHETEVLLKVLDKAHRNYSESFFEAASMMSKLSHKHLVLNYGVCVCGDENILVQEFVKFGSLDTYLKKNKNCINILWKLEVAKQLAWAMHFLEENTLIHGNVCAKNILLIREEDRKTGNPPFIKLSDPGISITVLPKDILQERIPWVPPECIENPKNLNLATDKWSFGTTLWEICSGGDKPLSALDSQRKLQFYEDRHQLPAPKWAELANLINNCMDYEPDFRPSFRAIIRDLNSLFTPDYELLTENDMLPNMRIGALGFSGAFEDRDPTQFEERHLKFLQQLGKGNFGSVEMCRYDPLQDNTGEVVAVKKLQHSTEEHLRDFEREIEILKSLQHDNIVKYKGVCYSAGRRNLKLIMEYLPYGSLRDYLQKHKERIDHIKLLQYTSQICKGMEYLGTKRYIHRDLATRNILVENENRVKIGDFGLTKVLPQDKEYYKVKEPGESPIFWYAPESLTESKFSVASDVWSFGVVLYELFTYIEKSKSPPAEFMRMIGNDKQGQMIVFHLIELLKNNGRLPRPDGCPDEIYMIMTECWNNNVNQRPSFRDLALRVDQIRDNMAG
Citron Rho-interacting kinase (Homo sapiens), sequence (O14578 whole entry): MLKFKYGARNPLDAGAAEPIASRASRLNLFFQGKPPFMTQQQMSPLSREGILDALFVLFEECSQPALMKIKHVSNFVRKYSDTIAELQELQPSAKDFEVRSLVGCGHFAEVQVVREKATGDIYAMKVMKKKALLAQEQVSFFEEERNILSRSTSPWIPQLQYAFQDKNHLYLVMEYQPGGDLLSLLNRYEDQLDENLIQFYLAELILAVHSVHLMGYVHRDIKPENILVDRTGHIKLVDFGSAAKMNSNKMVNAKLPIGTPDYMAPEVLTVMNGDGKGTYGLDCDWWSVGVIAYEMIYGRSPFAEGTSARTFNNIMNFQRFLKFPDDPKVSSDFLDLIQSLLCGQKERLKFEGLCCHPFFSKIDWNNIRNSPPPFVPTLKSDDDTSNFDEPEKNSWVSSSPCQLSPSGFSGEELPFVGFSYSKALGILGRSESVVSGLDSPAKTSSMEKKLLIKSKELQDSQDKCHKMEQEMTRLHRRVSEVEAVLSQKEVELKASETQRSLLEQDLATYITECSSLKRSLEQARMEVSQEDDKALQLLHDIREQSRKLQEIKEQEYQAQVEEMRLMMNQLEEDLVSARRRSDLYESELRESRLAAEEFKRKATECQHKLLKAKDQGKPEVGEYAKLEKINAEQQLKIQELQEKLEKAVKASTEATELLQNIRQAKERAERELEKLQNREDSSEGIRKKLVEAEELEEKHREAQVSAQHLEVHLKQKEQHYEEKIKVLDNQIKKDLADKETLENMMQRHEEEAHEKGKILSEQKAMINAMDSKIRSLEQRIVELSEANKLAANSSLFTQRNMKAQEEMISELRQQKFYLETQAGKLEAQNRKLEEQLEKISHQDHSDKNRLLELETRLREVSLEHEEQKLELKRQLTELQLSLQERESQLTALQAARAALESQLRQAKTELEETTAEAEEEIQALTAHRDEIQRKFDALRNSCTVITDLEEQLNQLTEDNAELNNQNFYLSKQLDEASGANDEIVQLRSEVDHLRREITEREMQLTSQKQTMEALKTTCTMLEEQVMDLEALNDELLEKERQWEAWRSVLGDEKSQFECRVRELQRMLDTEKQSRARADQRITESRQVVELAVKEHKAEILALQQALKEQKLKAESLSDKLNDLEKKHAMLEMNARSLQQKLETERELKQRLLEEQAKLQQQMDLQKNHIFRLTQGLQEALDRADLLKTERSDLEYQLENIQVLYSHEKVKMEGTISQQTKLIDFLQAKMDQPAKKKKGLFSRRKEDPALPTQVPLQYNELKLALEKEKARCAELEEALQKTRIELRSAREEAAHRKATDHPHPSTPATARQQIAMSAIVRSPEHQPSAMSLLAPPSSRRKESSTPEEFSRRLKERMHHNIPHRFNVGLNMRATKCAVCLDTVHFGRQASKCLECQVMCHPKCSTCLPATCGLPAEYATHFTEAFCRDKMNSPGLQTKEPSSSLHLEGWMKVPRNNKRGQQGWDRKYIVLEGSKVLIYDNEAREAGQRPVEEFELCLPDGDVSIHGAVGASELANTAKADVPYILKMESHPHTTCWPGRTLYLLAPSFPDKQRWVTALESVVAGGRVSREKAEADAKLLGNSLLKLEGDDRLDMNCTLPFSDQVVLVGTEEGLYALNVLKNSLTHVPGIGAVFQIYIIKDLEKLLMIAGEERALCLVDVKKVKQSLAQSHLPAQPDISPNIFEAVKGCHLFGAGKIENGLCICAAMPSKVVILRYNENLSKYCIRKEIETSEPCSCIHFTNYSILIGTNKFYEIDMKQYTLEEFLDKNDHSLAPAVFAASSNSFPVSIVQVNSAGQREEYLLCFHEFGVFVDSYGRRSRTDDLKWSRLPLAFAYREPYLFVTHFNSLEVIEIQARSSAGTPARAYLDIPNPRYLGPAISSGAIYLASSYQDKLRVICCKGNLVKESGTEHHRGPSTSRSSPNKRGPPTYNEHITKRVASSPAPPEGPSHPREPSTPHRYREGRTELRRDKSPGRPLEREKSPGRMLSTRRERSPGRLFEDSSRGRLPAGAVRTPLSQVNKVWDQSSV

C[C@@H](c1cccc(C#N)c1)n1cc(Cl)cc(C(N)=O)c1=N [(S)-9s]
residual activity [1]: 100% | residual activity [2]: 76% | residual activity [3]: 84% | residual activity [4]: 89% | residual activity [5]: 100% | residual activity [6]: 79% | residual activity [7]: 100% | residual activity [8]: 96% | residual activity [9]: 81% | residual activity [10]: 100% | residual activity [11]: 100% | residual activity [12]: 100% | residual activity [13]: 89% | residual activity [14]: 93% | residual activity [15]: 93% | residual activity [16]: 80% | residual activity [17]: 100% | residual activity [18]: 75% | residual activity [19]: 82% | residual activity [20]: 96% | residual activity [21]: 99% | residual activity [22]: 100% | residual activity [23]: 75% | residual activity [24]: 100% | residual activity [25]: 100% | residual activity [26]: 100% | residual activity [27]: 97% | residual activity [28]: 93% | residual activity [29]: 86% | residual activity [30]: 71% | residual activity [31]: 100% | residual activity [32]: 89% | residual activity [33]: 100% | residual activity [34]: 74% | residual activity [35]: 100% | residual activity [36]: 95% | residual activity [37]: 96% | residual activity [38]: 86% | residual activity [39]: 94% | residual activity [40]: 100% | residual activity [41]: 100% | residual activity [42]: 94% | residual activity [43]: 73% | inhibition [44]: 60.5% | inhibition [45]: 20.7%

C[C@H](c1cccc(C#N)c1)n1cc(Cl)cc(C(N)=O)c1=N [(R)-9s]
residual activity [1]: 100% | residual activity [2]: 79% | residual activity [3]: 90% | residual activity [4]: 88% | residual activity [5]: 87% | residual activity [6]: 82% | residual activity [7]: 100% | residual activity [8]: 97% | residual activity [9]: 78% | residual activity [10]: 96% | residual activity [11]: 100% | residual activity [12]: 100% | residual activity [13]: 85% | residual activity [14]: 75% | residual activity [15]: 80% | residual activity [16]: 66% | residual activity [17]: 100% | residual activity [18]: 74% | residual activity [19]: 85% | residual activity [20]: 100% | residual activity [21]: 99% | residual activity [22]: 100% | residual activity [23]: 72% | residual activity [24]: 100% | residual activity [25]: 96% | residual activity [26]: 95% | residual activity [27]: 79% | residual activity [28]: 81% | residual activity [29]: 100% | residual activity [30]: 56% | residual activity [31]: 100% | residual activity [32]: 83% | residual activity [33]: 100% | residual activity [34]: 68% | residual activity [35]: 100% | residual activity [36]: 95% | residual activity [37]: 100% | residual activity [38]: 91% | residual activity [39]: 75% | residual activity [40]: 100% | residual activity [41]: 100% | residual activity [42]: 75% | residual activity [43]: 88% | inhibition [44]: 93.3% | inhibition [45]: 53.6%
